In US20060069132A1, “Azolecarboxamide herbicides” (priority 2004, published 2006):

Tests used:
[1] = tested on: redroot pigweed; experiment: Test A pre-/postemergence herbicide test; format: in vivo, Amaranthus retroflexus
Summary of the method: (§1)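 Visual injury rating on a 0–100 scale (0 no effect, 100 complete control) versus untreated controls, about ten days after treatment in greenhouse. Pre: directed soil spray onto seeded sandy loam. Post: spray to runoff on plants 2–10 cm tall at one- to two-leaf stage.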

[2] = tested on: barnyardgrass; experiment: Test A pre-/postemergence herbicide test; format: in vivo, Echinochloa crus-galli
Summary of the method: as §1

[3] = tested on: woolly cupgrass; experiment: Test C pre-/postemergence herbicide test; format: in vivo, Eriochloa villosa; conditions: for Cupgrass, Woolly plant response rating: 500 g ai/ha
Summary of the method: (§2)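 Pre- and postemergence application, solvent/surfactant formulation; post at 1- to 4-leaf stage (2–18 cm). Greenhouse 12–14 d. Visual rating vs controls, 0 = no effect, 100 = complete control.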

[4] = tested on: goosegrass; experiment: Test C pre-/postemergence herbicide test; format: in vivo, Eleusine indica; conditions: for Goosegrass plant response rating: 500 g ai/ha
Summary of the method: as §2

[5] = tested on: small flower umbrella sedge; experiment: Test B flooded paddy test; format: in vivo, Cyperus difformis; conditions: 1000 g ai/ha, visual rating, scale 0 to 100 (0 no effect, 100 complete control), 13 to 15 days
Summary of the method: (§3)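 Formulated test chemicals went onto postemergence plants measuring 2 to 18 cm, at one to four leaves. For the paddy assay, species had reached two leaves. Scoring took place 13–15 days later by eye, relative to untreated plants, using 0 for no effect up to 100 for full control.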

[6] = tested on: bermudagrass; experiment: Test C pre-/postemergence herbicide test; format: in vivo, Cynodon dactylon
Summary of the method: as §2

[7] = tested on: large crabgrass; experiment: Test A pre-/postemergence herbicide test; format: in vivo, Digitaria sanguinalis
Summary of the method: as §1

[8] = tested on: rice; experiment: Test C flooded paddy test; format: in vivo, Oryza sativa; conditions: for Plant response rating, Rice: 500 g ai/ha, visual rating after 12 to 14 days
Summary of the method: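 Injury scored visually against controls on a 0 (no effect) to 100 (complete control) scale, 12 to 14 days after treatment in greenhouse. Flooded paddy plants treated at 2-leaf stage; postemergence plants at 1- to 4-leaf stage, 2 to 18 cm tall.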

[9] = tested on: blackgrass; experiment: Test B postemergence herbicide test; format: in vivo, Alopecurus myosuroides; conditions: scale 0 (no effect) to 100 (complete control); for Blackgrass plant response rating: postemergence, visual rating
Summary of the method: as §3

[10] = Postemergence, 500 g ai/ha, 0 to 100 scale, 0 no effect, 100 complete control
[11] = Postemergence, 2000 g ai/ha, 0 to 100 scale, 0 no effect, 100 complete control
[12] = Preemergence, 500 g ai/ha, visual rating, 0 to 100 scale (0 no effect, 100 complete control)
[13] = Preemergence, 2000 g ai/ha, 0 to 100 scale, 0 no effect, 100 complete control
[14] = 31 g ai/ha, preemergence, scale 0 to 100
[15] = 125 g ai/ha, scale 0 (no effect) to 100 (complete control), visual, 12 to 14 days, preemergence
[16] = 250 g ai/ha, scale 0 to 100 (0 no effect, 100 complete control), visual, 12 to 14 days, preemergence
[17] = 62 g ai/ha, scale 0 to 100 (0 no effect, 100 complete control)
[18] = 250 g ai/ha, scale of 0 to 100, 0 is no effect, 100 is complete control
[19] = scale 0 to 100 (0 no effect, 100 complete control)
[20] = Preemergence, 2000 g ai/ha, visual rating, 0 to 100 scale (0 no effect, 100 complete control)
[21] = preemergence, 500 g ai/ha, visual injury, 0 to 100 scale (0 no effect, 100 complete control)
[22] = 125 g ai/ha, scale 0 to 100 (0 no effect, 100 complete control)
[23] = Postemergence, 250 g ai/ha, scale 0 to 100, 0 no effect, 100 complete control
[24] = Preemergence, scale 0 to 100, 0 no effect, 100 complete control
[25] = postemergence, 125 g ai/ha, scale 0 to 100
[26] = postemergence, 62 g ai/ha, scale 0 to 100

Row | Structure (SMILES) | Plant response rating, Pigweed [1, 11] | Plant response rating, Barnyardgrass [2, 11] | Barnyardgrass plant response rating [2, 12] | Plant response rating (0 = no effect, 100 = complete control), Cupgrass, Woolly ([3]; 62 g ai/ha, preemergence) | Plant response rating, Cupgrass, Woolly [3, 15] | Plant response rating, Cupgrass, Woolly [3, 16] | Plant response rating (0 = no effect, 100 = complete control), Goosegrass ([4]; 62 g ai/ha, preemergence) | Plant response rating, Goosegrass [4, 15] | Sedge, Umbrella plant response rating [5] | Plant response rating (0 = no effect, 100 = complete control), Bermudagrass ([6]; 62 g ai/ha, preemergence) | Plant response rating, Bermudagrass [6, 15] | Plant response rating, Bermudagrass [6, 16] | Plant response rating, Crabgrass, Large [7, 11] | Crabgrass, Large plant response rating [7, 12] | Rice plant response rating [8, 17] | Rice plant response rating [8, 18] | Plant response rating, Rice [8, 19] | Blackgrass plant response rating ([9]; 125 g ai/ha) | Pigweed plant response rating [1, 10] | Pigweed plant response rating [1, 20] | also measured
1 | CCn1nc(C(C)(C)C)cc1C(=O)Nc1cccc(C(=O)NCC2CC2)c1 [Compound 62] | 100 | 100 | 50 | 0 | 0 | 20 | 10 | 70 | 80 | 10 | 90 | 95 | 60 | 70 | 15 | 45 | 65 | 10 | – | – | Plant response rating, Pigweed [1, 10]: 100; Pigweed plant response rating [1, 12]: 100; Pigweed plant response rating [1, 13]: 100; Plant response rating, Barnyardgrass [2, 10]: 65; Barnyardgrass plant response rating [2, 13]: 95; Plant response rating, Cupgrass, Woolly [3, 14]: 0; Plant response rating, Goosegrass [4, 14]: 0; Plant response rating, Goosegrass [4, 16]: 85; Plant response rating, Bermudagrass [6, 14]: 0; Plant response rating, Crabgrass, Large [7, 10]: 25; Crabgrass, Large plant response rating [7, 13]: 85; Rice plant response rating ([8]; 125 g ai/ha, scale of 0 to 100, 0 is no effect, 100 is complete control): 25; Plant response rating, Blackgrass ([9]; Postemergence, 500 g ai/ha, visual rating after 13 to 15 days): 70
2 | CC(=O)c1cccc(NC(=O)c2cc(C(C)(C)C)nn2CCF)c1 [Compound 128] | 80 | 80 | 55 | 10 | 20 | – | 80 | 90 | 90 | 100 | 100 | – | 70 | 90 | 25 | 70 | 70 | 10 | 50 | 95 | Pigweed plant response rating [1, 21]: 60; Barnyardgrass plant response rating [2, 10]: 70; Barnyardgrass plant response rating [2, 20]: 85; Plant response rating, Bermudagrass ([6]; 16 g ai/ha, scale 0 to 100, 0 no effect, 100 complete control, last section of Table C (species set of preemergence test)): 30; Plant response rating, Bermudagrass ([6]; 31 g ai/ha, scale 0 to 100, 0 no effect, 100 complete control, last section of Table C (species set of preemergence test)): 90; Crabgrass, Large plant response rating [7, 10]: 60; Crabgrass, Large plant response rating [7, 20]: 100; Rice plant response rating [8, 22]: 40; Blackgrass plant response rating ([9]; 500 g ai/ha): 10
3 | CCNC(=O)c1cccc(NC(=O)c2cc(C(C)(C)C)nn2CC)n1 [Compound 144] | 100 | 100 | 100 | 0 | 5 | 5 | 30 | 60 | 90 | 70 | 80 | 80 | 90 | 90 | 0 | 30 | 30 | 20 | 100 | 100 | Pigweed plant response rating [1, 21]: 100; Barnyardgrass plant response rating [2, 10]: 85; Barnyardgrass plant response rating [2, 20]: 100; Cupgrass, Woolly plant response rating ([3]; Postemergence, scale 0 to 100): 50; Plant response rating, Cupgrass, Woolly [3, 23]: 50; Cupgrass, Woolly plant response rating [3, 24]: 70; Plant response rating, Cupgrass, Woolly [3, 25]: 30; Plant response rating, Cupgrass, Woolly [3, 26]: 0; Goosegrass plant response rating ([4]; Postemergence, scale 0 to 100): 20; Plant response rating, Goosegrass [4, 23]: 10; Goosegrass plant response rating [4, 24]: 80; Plant response rating, Goosegrass [4, 25]: 5; Plant response rating, Goosegrass [4, 26]: 5; Bermudagrass plant response rating ([6]; Preemergence, 500 g ai/ha, scale 0 to 100, 0 no effect, 100 complete control): 90; Plant response rating, Bermudagrass [6, 25]: 0; Plant response rating, Bermudagrass [6, 26]: 0; Crabgrass, Large plant response rating [7, 10]: 55; Crabgrass, Large plant response rating [7, 20]: 90; Rice plant response rating [8, 22]: 20; Blackgrass plant response rating ([9]; 500 g ai/ha): 60
